Measurements as given in ChEMBL document CHEMBL1125092, “Nonneurotoxic tetralin and indan analogues of 3,4-(methylenedioxy)amphetamine (MDA)” (J Med Chem, 1990).
Where “and” joins values, the source holds several entries; their conditions need not be identical. Identical values can stand only once.

Experiments:
Format in all cases: functional
Rattus norvegicus [1] = experiment: Tested for stimulus generation in rats trained to discriminate LSD from saline at a dose 0.186 (umol/kg),(number of animals = 8)
Rattus norvegicus [2] = experiment: Hallucinogenic property was determined in groups of LSD trained rats and percentage of animals disrupted was reported at a dose 0.186 (umol/kg),(number of animals = 8)
Rattus norvegicus [3] = experiment: Tested for stimulus generation in rats trained to discriminate LSD from saline at a dose 0.093(umol/kg) (number of animals = 8)
Rattus norvegicus [4] = experiment: Tested for stimulus generation in rats trained to discriminate LSD from saline at a dose 0.046(umol/kg) (number of animals = 9)
Rattus norvegicus [5] = organism: Rattus norvegicus; experiment: Inhibitory activity was determined LSD trained rats
Rattus norvegicus [6] = experiment: Hallucinogenic property was determined in groups of LSD trained rats and percentage of animals disrupted was reported at a dose 0.093(umol/kg) (number of animals = 8)
Rattus norvegicus [7] = experiment: Hallucinogenic property was determined in groups of LSD trained rats and percentage of animals disrupted was reported at a dose 0.046(umol/kg) (number of animals = 9)
Rattus norvegicus [8] = experiment: Hallucinogenic property was determined in groups of LSD trained rats and percentage of animals disrupted was reported at a dose 0.012 (umol/kg),(number of animals = 8)
Rattus norvegicus [9] = experiment: Hallucinogenic property was determined in groups of LSD trained rats and percentage of animals disrupted was reported at 0.023 (umol/kg) (number of animals = 8)
Rattus norvegicus [10] = experiment: Tested for stimulus generation in rats trained to discriminate LSD from saline at a dose 0.023 (umol/kg) (number of animals = 8)
Rattus norvegicus [11] = experiment: Tested for stimulus generation in rats trained to discriminate LSD from saline at a dose 0.012 (umol/kg),(number of animals = 8)
Rattus norvegicus [12] = experiment: Hallucinogenic property was determined in groups of MDMA trained rats and percentage of animals disrupted was reported at a dose 2.34 (umol/kg), (number of animals = 8)
Rattus norvegicus [13] = experiment: Tested for disruption in more than 50% rats trained to discriminate LSD from saline at a dose 18.72 (umol/kg) (no. of animals =5)
Rattus norvegicus [14] = experiment: Tested for stimulus generation in rats trained to discriminate LSD from saline at a dose 9.36 (umol/kg), (number of animals = 10)
Rattus norvegicus [15] = experiment: Tested for stimulus generation in rats trained to discriminate +/-MDMA from saline at 2.34 (umol/kg), (number of animals = 8)
Rattus norvegicus [16] = experiment: Tested for stimulus generation in rats trained to discriminate LSD from saline at a dose 2.34 (umol/kg),(number of animals = 13)
Rattus norvegicus [17] = experiment: Hallucinogenic property was determined in groups of LSD trained rats and percentage of animals disrupted was reported at a dose 9.36 (umol/kg),(number of animals = 10)
Rattus norvegicus [18] = experiment: Hallucinogenic property was determined in groups of LSD trained rats and percentage of animals disrupted was reported at a dose 18.72 (umol/kg),(number of animals = 5)
Rattus norvegicus [19] = experiment: Hallucinogenic property was determined in groups of MDMA trained rats and percentage of animals disrupted was reported at a dose 9.36 (umol/kg), (number of animals = 9)
Rattus norvegicus [20] = experiment: Tested for stimulus generation in rats trained to discriminate +/-MDMA from saline at 18.72 (umol/kg),(number of animals = 5)
Rattus norvegicus [21] = experiment: Tested for stimulus generation in rats trained to discriminate +/-MDMA from saline at 4.68 (umol/kg), (number of animals = 10)
Rattus norvegicus [22] = experiment: Hallucinogenic property was determined in groups of MDMA trained rats and percentage of animals disrupted was reported at a dose 1.17 (umol/kg), (number of animals =6)
Rattus norvegicus [23] = experiment: Hallucinogenic property was determined in groups of LSD trained rats and percentage of animals disrupted was reported at 2.34 (umol/kg),(number of animals = 13)
Rattus norvegicus [24] = experiment: Tested for stimulus generation in rats trained to discriminate LSD from saline at a dose 1.17 (umol/kg),(number of animals = 10)
Rattus norvegicus [25] = experiment: Tested for stimulus generation in rats trained to discriminate LSD from saline at a dose 4.68 (umol/kg),(number of animals = 10)
Rattus norvegicus [26] = experiment: Hallucinogenic property was determined in groups of MDMA trained rats and percentage of animals disrupted was reported at a dose 4.68 (umol/kg), (number of animals = 10)
Rattus norvegicus [27] = experiment: Hallucinogenic property was determined in groups of MDMA trained rats and percentage of animals disrupted was reported at 18.72 (umol/kg),(number of animals = 5)
Rattus norvegicus [28] = experiment: Hallucinogenic property was determined in groups of LSD trained rats and percentage of animals disrupted was reported at a dose 1.17 (umol/kg),(number of animals = 10)
Rattus norvegicus [29] = experiment: Hallucinogenic property was determined in groups of LSD trained rats and percentage of animals disrupted was reported at a dose 4.68 (umol/kg),(number of animals = 10)
Rattus norvegicus [30] = experiment: Tested for stimulus generation in rats trained to discriminate +/-MDMA from saline at 9.36 (umol/kg), (number of animals = 9)
Rattus norvegicus [31] = experiment: Tested for stimulus generation in rats trained to discriminate +/-MDMA from saline at 1.17 (umol/kg), (number of animals = 6)
Rattus norvegicus [32] = experiment: Hallucinogenic property was determined in groups of MDMA trained rats and percentage of animals disrupted was reported at 28.08 (umol/kg),(number of animals = 4)

`CCN(CC)C(=O)[C@@H]1C=C2c3cccc4[nH]cc(c34)C[C@H]2N(C)C1` [LYSERGIDE] was tested, and the SDL (Rattus norvegicus [1]) was 100%, the D (Rattus norvegicus [2]) was 0% and the SDL (Rattus norvegicus [3]) was 88%. The SDL (Rattus norvegicus [4]) was 44%, the ED50 (Rattus norvegicus [5]) was 0.048 µM/kg and 0.021 µM/kg and the D (Rattus norvegicus [6]) was 0%. For the same molecule, the D (Rattus norvegicus [7]) was 0%, the D (Rattus norvegicus [8]) was 0% and the D (Rattus norvegicus [9]) was 0%. The SDL (Rattus norvegicus [10]) was 0% and the SDL (Rattus norvegicus [11]) was 13%.

With `NC1Cc2ccc3c(c2C1)OCO3` (configuration not stated) the D (Rattus norvegicus [12]) was 13%, the SDL (Rattus norvegicus [13]) was 0% and the SDL (Rattus norvegicus [14]) was 25%. For the same molecule, the SDL (Rattus norvegicus [15]) was 29%, the SDL (Rattus norvegicus [16]) was 25% and the D (Rattus norvegicus [17]) was 20%. It also gave a D (Rattus norvegicus [18]) of 100%, a D (Rattus norvegicus [19]) of 11% and an SDL (Rattus norvegicus [20]) of 0%. It also gave an SDL (Rattus norvegicus [21]) of 13%, a D (Rattus norvegicus [22]) of 0% and a D (Rattus norvegicus [23]) of 44%. It also gave an SDL (Rattus norvegicus [24]) of 38%, an SDL (Rattus norvegicus [25]) of 13% and a D (Rattus norvegicus [26]) of 20%. For the same molecule, the D (Rattus norvegicus [27]) was 0%, the D (Rattus norvegicus [28]) was 20% and the D (Rattus norvegicus [29]) was 20%. The SDL (Rattus norvegicus [30]) was 25%, the SDL (Rattus norvegicus [31]) was 0% and the D (Rattus norvegicus [32]) was 50%.
